IC50 and Activity data for four compounds are collected here from ChEMBL document CHEMBL4616618, “Design and synthesis of a folate-receptor targeted diazepine-ring-opened pyrrolobenzodiazepine prodrug conjugate” (Bioorg Med Chem Lett, 2020).

The source made the active and inactive calls. The rule behind the calls is not given here.

Series [1] can be described thus: Antagonist activity at folate receptor in human KB cells after 2 hrs in presence of 100 uM folic acid. The series is classed as cell-based.
Series [2] can be described thus: Antagonist activity at folate receptor in human KB cells after 2 hrs. It counts as cell-based.
The nature of series [3]: Toxicity in mouse xenografted with FR-positive human KB cells assessed as body weight loss at 300 nmol/kg administered as single dose and measured up to 96 days post tumor implantation. The conditions noted are these: in vivo, 2304 h. The series is classed as cell-based. On the technique in general: In xenograft studies the graft and the host belong to different species.

Series [4] deals with KB. Briefly: Antitumor activity against FR-positive human KB cells xenografted in nu/nu mouse at 300 nmol/kg administered as single dose for 1 week. The series is classed as functional, cell-based.
A short description of series [5]: Toxicity in mouse xenografted with FR-positive human KB cells assessed as tissue degeneration at 300 nmol/kg administered as single dose for 1 week. The note with it: in vivo, 168 h. The series is classed as cell-based.
Series [6] can be described thus: Toxicity in mouse xenografted with FR-positive human KB cells assessed as body weight loss at 2 umol/kg administered as single dose for 1 week. The series is classed as cell-based. The conditions noted are these: in vivo, 168 h.
In series [7] the test system is KB. Briefly: Antitumor activity against FR-positive human KB cells xenografted in nu/nu mouse assessed as reduction in tumor growth at 2 umol/kg administered as single dose for 1 week. The series is classed as functional, cell-based.

One may read the IC50 as the concentration at which inhibition is half-maximal. Regarding `C=C1C[C@H]2C(=O)Nc3cc(OCCCCCOc4cc(N)c(C(=O)N5CC(=C)C[C@H]5C5OCCN5C(=O)OCCSSC[C@H](NC(=O)[C@H](CC(=O)O)NC(=O)[C@H](CC(=O)O)NC(=O)[C@H](CCCNC(=N)N)NC(=O)[C@H](CC(=O)O)NC(=O)CC[C@H](NC(=O)c5ccc(NCc6cnc7nc(N)[nH]c(=O)c7n6)cc5)C(=O)O)C(=O)O)cc4OC)c(OC)cc3C(=O)N2C1` (some centres undefined), the IC50 came to 696 nM in series [1] and 1.12 nM in series [2].

On to `C=C1C[C@H]2C=Nc3cc(OCCCCCOc4cc(N)c(C(=O)N5CC(=C)C[C@H]5C5OCCN5C(=O)OCC(C)(C)SSCCC(=O)NCCNC(=O)CCOCCOCCOCCOCCNC(=O)CCN5C(=O)CC(SC[C@H](NC(=O)[C@H](CC(=O)O)NC(=O)[C@H](CC(=O)O)NC(=O)[C@H](CCCNC(=N)N)NC(=O)[C@H](CC(=O)O)NC(=O)CC[C@H](NC(=O)c6ccc(NCc7cnc8nc(N)[nH]c(=O)c8n7)cc6)C(=O)O)C(=O)O)C5=O)cc4OC)c(OC)cc3C(=O)N2C1` (some centres undefined), for which the Activity entry in series [3] and in series [5] was “Toxic” throughout. The IC50 is 3.78 nM in series [1] and 0.0522 nM in series [2]. Moreover, the result in series [4] was Active.

Take `C=C1C[C@@H](C2OCCN2C(=O)OCCSSC[C@@H](NC(=O)[C@H](CCC(=O)NC[C@H](O)[C@@H](O)[C@H](O)[C@H](O)CO)NC(=O)[C@@H](CCC(=O)O)NC(=O)[C@H](CCC(=O)NC[C@H](O)[C@@H](O)[C@H](O)[C@H](O)CO)NC(=O)[C@@H](CCC(=O)O)NC(=O)[C@H](CCC(=O)NC[C@H](O)[C@@H](O)[C@H](O)[C@H](O)CO)NC(=O)CC[C@H](NC(=O)c2ccc(NCc3cnc4nc(N)[nH]c(=O)c4n3)cc2)C(=O)O)C(=O)O)N(C(=O)c2cc(OC)c(OCCCCCOc3ccc(-c4nc5ccc(-c6nc7cc(N8CCN(C)CC8)ccc7[nH]6)cc5[nH]4)cc3)cc2N)C1` (some centres undefined): the Activity entry in series [6] is on record as “Toxic”. Moreover, the values for the IC50 in series [1] and in series [2] were 84.3 nM and 0.658 nM, respectively. Besides, in series [7], the outcome was Active.

`C=C1C[C@@H](C2OCCN2C(=O)OCCSSC[C@@H](NC(=O)[C@H](CCC(=O)NC[C@H](O)[C@@H](O)[C@H](O)[C@H](O)CO)NC(=O)[C@@H](CCC(=O)O)NC(=O)[C@H](CCC(=O)NC[C@H](O)[C@@H](O)[C@H](O)[C@H](O)CO)NC(=O)[C@@H](CCC(=O)O)NC(=O)[C@H](CCC(=O)NC[C@H](O)[C@@H](O)[C@H](O)[C@H](O)CO)NC(=O)CC[C@H](NC(=O)c2ccc(NCc3cnc4nc(N)[nH]c(=O)c4n3)cc2)C(=O)O)C(=O)O)N(C(=O)c2cc(OC)c(OCCCCCOc3cc(N)c(C(=O)N4CC(=C)C[C@H]4C4OCCN4C(=O)OCCSSc4ccccn4)cc3OC)cc2N)C1` (some centres undefined): the figures for the IC50 in series [1] and in series [2] were 184 nM and 1.31 nM, respectively. For the same compound, the result in series [7] was Active.
